Results taken from the supplement of paper PMC5579334.

What was measured:
HS-PSS [1] = test: drug sensitivity score (DSS, CellTiter-Glo viability, 72 h) (DSS (dimensionless)); higher = more sensitive; extreme values may be limits of the assay
Outline: (§1)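 Viability was scored by CellTiter-Glo ATP luminescence, scaled from vehicle to positive-control wells, with duplicates averaged where present. The cells, MPNST lines and primary human Schwann cells at 750–1000 per well, sat 72 h at 37 °C, 5% CO2, in 384-well plates preprinted with each compound at five concentrations in 10-fold steps. Four-parameter logistic fits were run on the data. These fits give drug sensitivity score and relative IC50 censored at the top concentration, and percent inhibition is reported at the top concentration.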

HS-Sch-2 [2] = test: as above
Outline: as §1

YST-1 [3] = test: as above
Outline: as §1

HS-PSS [4] = test: drug sensitivity score (DSS, CellTox-Green cytotoxicity, 72 h) (DSS (dimensionless)); higher = more cytotoxic; extreme values may be limits of the assay
Outline: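 MPNST cell lines and primary human Schwann cells were incubated 72 h at 37 °C in 384-well plates holding five 10-fold compound dilutions. CellTox-Green was added before seeding at a final 1:1000 dilution and reported fluorescence from DNA released by disrupted cells. Signals were scaled to vehicle and positive-control wells, and cultures failing plate quality control were dropped. Drug sensitivity score and relative IC50 come from four-parameter logistic fits, with IC50 censored at the top concentration.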

HS-PSS [5] = test: % inhibition of CellTiter-Glo viability at highest tested concentration (72 h), relative to DMSO and benzethonium chloride controls; higher = more inhibition
Outline: as §1

HS-Sch-2 [6] = test: as above
Outline: as §1

YST-1 [7] = test: as above
Outline: as §1

Row | Structure (SMILES) | drug sensitivity score (HS-PSS [1]) | drug sensitivity score (HS-Sch-2 [2]) | drug sensitivity score (YST-1 [3]) | drug sensitivity score (HS-PSS [4]) | % inhibition (HS-PSS [5]) [%] | % inhibition (HS-Sch-2 [6]) [%] | % inhibition (YST-1 [7]) [%]
1 | C[C@@H]1CN(CC(=O)Nc2ccc3c(c2)Cc2cccc(-c4cc(=O)cc(N5CCOCC5)o4)c2S3)C[C@H](C)O1 (max concentration tested 25000 nM) | 1.79 | 8.7 | 1.74 | 0 | 45.7 | 97.9 | 41.4
2 | Cc1ccc2nc(CN(CCN(Cc3nc4ccc(C)cc4[nH]3)Cc3nc4ccc(C)cc4[nH]3)Cc3nc4ccc(C)cc4[nH]3)[nH]c2c1 (max concentration tested 50000 nM) | 7.02 | 7.29 | 6.33 | 0.03 | 74.3 | 80.3 | 67.5
3 | Cc1nn(C)c(COc2ccc(N3CCN(S(=O)(=O)N(C)C)CC3)cc2)c1-c1cccc2c(CCCOc3cccc4ccccc34)c(C(=O)O)n(CCN3CCOCC3)c12 (max concentration tested 50000 nM) | 4.52 | 5.73 | 6.72 | 1.47 | 90.5 | 101 | 101
4 | O=C1c2ccccc2-c2n[nH]c3cccc1c23 (max concentration tested 100000 nM) | 4.26 | 2.29 | 2.42 | 0.2 | 43.2 | 27.4 | 34.2
5 | O=c1cc(N2CCOCC2)oc2c(-c3ccccc3)cccc12 (max concentration tested 100000 nM) | 7.1 | 7.3 | 12 | 2.67 | 69.6 | 72.3 | 96.1
6 | Cn1cc(C[C@@H](N)C(=O)O)c2ccccc21 [1-methyl-D-tryptophan] (max concentration tested 5000 nM) | 0 | 0 | 0 | 0 | 6.24 | 2.88 | -5.86
7 | CCCCC/C=C/C=C1/C(=O)C=C[C@@H]1C/C=C\CCCC(=O)O [15D-PGJ2] (max concentration tested 3000 nM) | 0 | 0.58 | 0 | 0 | 3.17 | 16.9 | -5.83
8 | Cc1ccccc1C(C(=O)NC1CCCCC1)N(C(=O)Cn1ccnc1C)c1cccc(F)c1 (centres undefined) [AGI-5198] (max concentration tested 10000 nM) | 0.2 | 0.6 | 0 | 0 | 11.5 | 4.74 | 1.43
9 | O=C(Nc1cccc(C(F)(F)F)c1)Nc1cc(S(=O)(=O)NC2CC2)ccc1-c1ccsc1 [AGI-6780] (max concentration tested 10000 nM) | 0.86 | 2.42 | 0.34 | 0 | 24.7 | 28.6 | 12.9
10 | COc1ccc2c(OCc3nnc4ccc(-c5ccccc5)nn34)ccnc2c1 [AMG-208] (max concentration tested 2500 nM) | 0.98 | 0 | 0 | 0 | 9.98 | 7.53 | -2.81
11 | CC(C)[C@@H](CS(=O)(=O)C(C)C)N1C(=O)[C@@](C)(CC(=O)O)C[C@H](c2cccc(Cl)c2)[C@H]1c1ccc(Cl)cc1 [AMG-232] (max concentration tested 1000 nM) | 0.61 | 0 | 8.01 | 0 | 22.4 | -6.16 | 96.6
12 | Cc1csc(-c2nnc(Nc3ccc(Oc4ncccc4-c4ccnc(N)n4)cc3)c3ccccc23)c1 [AMG-900] (max concentration tested 1000 nM) | 0.8 | 1.27 | 9.1 | 0 | 19.6 | 30 | 29.8
13 | CC1CCC(n2c3cnccc3c3cnc(Nc4ccc5c(n4)CCN(C(=O)CO)C5)nc32)CC1 (centres undefined) [AMG-925] (max concentration tested 1000 nM) | 0 | 0.03 | 0.02 | 0 | 9.07 | 12.2 | 6.95
14 | COCC1(CO)C(=O)C2CCN1CC2 (centres undefined) [APR-246] (max concentration tested 10000 nM) | 0.39 | 0 | 0 | 0 | 13.1 | 5 | -11
15 | CC(C)[C@H](C(=O)Nc1ccc(C(=O)NO)cc1)c1ccccc1 [AR-42] (max concentration tested 10000 nM) | 10 | 10.9 | 17.8 | 5 | 88.1 | 101 | 100
16 | COc1cc(N2CCC(N3CCN(C)CC3)CC2)ccc1Nc1ncnc(Nc2ccccc2S(=O)(=O)C(C)C)n1 [ASP3026] (max concentration tested 10000 nM) | 0 | 0 | 0 | 0 | 2.45 | 4.73 | -4.61
17 | O=C(NC1CCNCC1)c1n[nH]cc1NC(=O)c1c(Cl)cccc1Cl [AT7519] (max concentration tested 10000 nM) | 15.3 | 17.6 | 26 | 1.85 | 73.5 | 99.7 | 98.7
